Assay results as given in patent US20110092488A1, “Quninoline Methanol Compounds for the Treatment and Prevention of Parasitic Infections” (priority 2005, published 2011).
In brackets after ≈: the same amount, converted by molar mass.

Assays:
[1] = system: Balb/c 3T3 mouse fibroblast cells; assay: 3T3 neutral red uptake (NRU) phototoxicity test; assay type: cell-based
From the text: A pharmacophore for phototoxicity was developed to be used as an in silico screening tool to determine the minimum phototoxic concentration for a number of AAQMS (WR069878 and those indicated in Table 5). Minimum phototoxic concentration in a yeast assay for a number of AAQMS, as per Ison et al.; Phototoxicity of Quinoline methanols and other drugs in mice and yeast; J. Invest. Dermatol. (52)193-198 (1969) were used to generate a three-dimensional pharmacophore model using the HypoGen algorithm of the […]® (Accelrys software Inc.) methodology as per Bhattacharjee et al.; A 3D QSAR pharmacophore model and quantum chemical structure—activity analysis of chloroquine(CQ)-resistance reversal; J. Chem Inf. Comput Sci. (42) 1212-1220 (2002), and Dow et al.; as discussed in Antimicrob Agents Chemother. (48)2624-2632 (2004), cited above, both Bhattacharjee et al. and Dow et al, incorporated herein, by reference. The structures of clinically used quinoline methanols were mapped onto the pharmacophores and estimated values for minimum phototoxic concentration were generated. The 3T3 neutral red uptake (NRU) phototoxicity test, conducted by MB Research Laboratories (Spinnerstown, Pa.), was used to identify quinoline methanols (WR069878 and those in Table 5) that have the potential to exert in vivo phototoxicity after systemic application. Briefly, the central 60 wells of two 96-well plates per AAQM were seeded with Balb/c 3T3 mouse fibroblast cells and maintained in culture for 24 hrs. These plates were then pre-incubated with a range of eight different concentrations of test compound (six wells per concentration) for one hour. Next, one plate was treated with a UVA dose of 5 J/cm2 by irradiating for 50 min at 1.7 mW/cm2, whereas the other plate remained non-treated and in the dark. Next, the treatment medium was replaced with culture medium and cell viability was determined after 24 hrs by measuring neutral red uptake for 3 hrs. Finally, the 3T3 NRU Phototox Prediction Software (version 2.0, ZEBET) was used to calculate EC50 values and Photo-Irritant Factors (PIF) for each compound. […]

[2] = system: FVO strain of P. falciparum; assay: Efficacy in P. falciparum-challenged Aotus monkeys; assay type: in vivo, Plasmodium falciparum in Aotus lemurinus lemurinus
P. falciparum D6 = assay: In vitro antimalarial activity against P. falciparum D6; assay type: cell-based, Plasmodium falciparum
Procedure: The in vitro activities of AAQMs against P. falciparum strains W2, D6, TM91C235 and TM90C2A were evaluated using the method of Desjardins et al. as modified by Milhous et al. W2 is chloroquine resistant and mefloquine sensitive, D6 is chloroquine sensitive but naturally less susceptible to mefloquine, TM91C235 is resistant to mefloquine, chloroquine and pyrimethamine as is TM90C2A, however this latter parasite is a two pfmdr1 copy strain. We routinely run mefloquine in this screen as a control to ensure assay validity.
The combined effects of azithromycin (as represented by compound 196 on the horizontal axes of FIG. 4 through 6) and WR074086 (as represented by compound 14885 on vertical axes of FIGS. 4 through 6) against three strains of P. falciparum were investigated using isobologram analysis. First, the IC50s of each compound were determined as described above.

IC90 against D6 (P. falciparum D6): 5.3 ng/mL (≈ 0.0115 µM)
SMILES: CCCCN(CCCC)CC(O)c1cc(-c2ccc(Cl)cc2)nc2cc(Cl)c(C)cc12 (stereo not shown) [WR069878]
Photo Irritant Factor (PIF) [1]: > 100
Outcome in Aotus ([2]; 10 mg/kg/day x7 oral, groups of two, Cure = parasite free 90 days, R = average day of recrudescence, Failure = rescued with mefloquine): Cures and Cure
Outcome ([2]; Aotus, oral, 10 mg/kg/day x 7 days, primary treatment): Cure
